Counter-ions that a name gives are not always drawn. Like-named read-outs stand apart in the source and are kept apart here.
Experiments:
[1] = test system: Female CFLP mice; test: Effect on energy expenditure and food intake of mice; assay type: in vivo; conditions: Mus musculus; for response vs control in vivo at 24.6 mg/kg / response vs control in vivo at 30.2 mg/kg / response vs control in vivo at 28.9 mg/kg / response vs control in vivo at 24.2 mg/kg / response vs control in vivo at 29.5 mg/kg / response vs control in vivo at 26.9 mg/kg / response vs control in vivo at 23.4 mg/kg / response vs control in vivo at 22 mg/kg / response vs control in vivo at 27.3 mg/kg / response vs control in vivo at 6.5 mg/kg / response vs control in vivo at 25.5 mg/kg / response vs control in vivo at 26.4 mg/kg / response vs control in vivo at 21.8 mg/kg / response vs control in vivo at 22.6 mg/kg / response vs control in vivo at 26.3 mg/kg: po, 21 h; for response vs control in vivo at 24.3 mg/kg: 24.3 mg/kg po; for response vs control in vivo at 24.3 mg/kg / response vs control in vivo at 18.4 mg/kg: mice, 21 hours after dosing, % of mice dosed with water; for response vs control in vivo at 18.4 mg/kg: 18.4 mg/kg po
Description: Female CFLP mice each weighing approximately 24 g, were given food and water ad lib before and during the experiment. The compounds were dissolved in water by addition of one mole of hydrochloric acid per mole of compound and these solutions were administered orally to each of 12 mice. A further 12 mice were dosed orally with water. The mice were placed in boxes through which air was drawn and the oxygen content of the air leaving the boxes was measured. […] The food intake of the mice was measured over this same period of 21 hours. The results are expressed as a percentage of the mean food intake or rate of energy expenditure of the mice dosed with water.

[2] = test system: Female CFLP mice; test: Anti-hyperglycaemic activity: subcutaneous glucose load in fasted mice, area under blood glucose curve; assay type: in vivo; conditions: glucose 1 g/kg sc, 2 hour period, vs water control
Description: Female CFLP mice, each weighing approximately 25 g, were fasted for 24 hours prior to the study. The compounds under study were administered orally as an aqueous solution to each of 6 mice. 6 mice were given water as a control. 30 minutes later a blood sample (20 µl) was obtained from the tail for the analysis of blood glucose. Immediately after taking this blood sample, glucose (1 g/kg body weight) was administered subcutaneously to each mouse. Blood samples were then obtained from each mouse at 30 minute intervals for 120 minutes.
Compounds that produced a significant (P<0.05) reduction of blood glucose, compared with control mice given water, at any time interval, were considered active. The area under the blood glucose curve over the 2 hour period after the administration of the glucose was calculated for each compound and compared with the value for control animals.

[3] = read-out: Mean Energy Expenditure (%)

CNCCOc1ccc(CC(C)NCC(O)c2cc3ccccc3o2)cc1.Cl.Cl (stereo not shown) [Example 4, N-[2-(4-(2-Methylaminoethoxy)phenyl)-1-methylethyl]-2-hydroxy-2-(2-benzofuranyl) ethanamine dihydrochloride]
response vs control in vivo at 24.6 mg/kg [1, 3]: 110% | response vs control in vivo at 24.6 mg/kg ([1]; read-out: Mean Food Intake (%)): 76% | Reduction in area under Blood glucose curve (%) ([2]; 2.5 μ moles/kg po): 18%

Br.Br.CNCCOc1ccc(CC(C)NCC(O)c2cccc(Cl)c2)cc1F (stereo not shown) [Example 5, N-[2-(3-Fluoro-4-(2-methylaminoethoxy)phenyl)-1-methylethyl)-2-hydroxy-2-(3-chlorophenyl) ethanamine dihydrobromide]
response vs control in vivo at 30.2 mg/kg [1, 3]: 134% | response vs control in vivo at 30.2 mg/kg ([1]; read-out: Mean Food Intake (%)): 102% | Reduction in area under Blood glucose curve (%) ([2]; 1 μ moles/kg po): 38%

Br.Br.CCc1cccc(C(O)CNC(C)Cc2ccc(OCCNC)cc2)c1 (stereo not shown) [Example 6, N-[2-(4-(2-Methylaminoethoxy)phenyl)-1-methylethyl]-2-hydroxy-2-(3-ethylphenyl)ethanamine dihydrobromide]
response vs control in vivo at 28.9 mg/kg [1, 3]: 97% | response vs control in vivo at 28.9 mg/kg ([1]; read-out: Mean Food Intake (%)): 98% | Reduction in area under Blood glucose curve (%) ([2]; 50 μ moles/kg po): 36.5%

CNCCOc1ccc(CC(C)NCC(O)c2ccc(Cl)cc2)cc1 (stereo not shown) [Example 12, N-[2-(4-(2-Methylaminoethoxy)phenyl)-1-methylethyl]-2-hydroxy-2-(4-chlorophenyl)ethanamine dihydrochloride]
response vs control in vivo at 24.2 mg/kg [1, 3]: 120% | response vs control in vivo at 24.2 mg/kg ([1]; read-out: Mean Food Intake (%)): 99%

CC(Cc1ccc(OCCNCc2ccccc2)cc1)NCC(O)c1cccc(Cl)c1 (stereo not shown) [Example 13, N-[2-4-(2-Benzylaminoethoxy)phenyl)-1-methylethyl]-2-hydroxy-2-(3-chlorophenyl)ethanamine dihydrochloride monohydrate]
response vs control in vivo at 29.5 mg/kg [1, 3]: 139% | response vs control in vivo at 29.5 mg/kg ([1]; read-out: Mean Food Intake (%)): 78% | Reduction in area under Blood glucose curve (%) ([2]; 1 μ moles/kg po): 62%

CC(Cc1ccc(OCCN2CCCCCC2)cc1)NCC(O)c1cccc(C(F)(F)F)c1 (stereo not shown) [Example 15, N-[2-(4-(2-(1-Homopiperidine)ethoxy)phenyl)-1-methylethyl]-2-hydroxy-2-(3-trifluoromethylphenyl)-ethanamine dihydrochloride]
response vs control in vivo at 26.9 mg/kg [1, 3]: 117% | response vs control in vivo at 26.9 mg/kg ([1]; read-out: Mean Food Intake (%)): 77% | Reduction in area under Blood glucose curve (%) ([2]; 1 μ moles/kg po): 17%

CCOC(=O)NCCOc1ccc(CC(C)NCC(O)c2cccc(Cl)c2)cc1 (stereo not shown) [Example 16, N-[2-(4-(2-Ethoxycarbonylamioethoxy)phenyl)-1-methylethyl]-2-hydroxy-2-(3-chlorophenyl)ethanamine]
response vs control in vivo at 23.4 mg/kg [1, 3]: 141% | response vs control in vivo at 23.4 mg/kg ([1]; read-out: Mean Food Intake (%)): 91% | Reduction in area under Blood glucose curve (%) ([2]; 1 μ moles/kg po): 68%

CNC(=O)NCCOc1ccc(CC(C)NCC(O)c2cccc(C(F)(F)F)c2)cc1 (stereo not shown) [Example 17, N-[2-(4-(2-Methylaminocarbonylaminoethoxy)phenyl)-1-methylethyl]-2-hydroxy-2-(3-trifluoromethylphenyl)ethanamine]
response vs control in vivo at 22 mg/kg [1, 3]: 114% | response vs control in vivo at 22 mg/kg ([1]; read-out: Mean Food Intake (%)): 87%

CC(Cc1ccc(OCCN)cc1)NCC(O)c1cccc(C(F)(F)F)c1.Cl.Cl.O.O (stereo not shown) [Example 19, N-[2-(4-(2-Aminoethoxy)phenyl)-1-methylethyl]-2-hydroxy-2-(3-trifluoromethylphenyl)ethanamine dihydrochloride, dihydrate]
response vs control in vivo at 27.3 mg/kg [1, 3]: 135% | response vs control in vivo at 27.3 mg/kg ([1]; read-out: Mean Food Intake (%)): 94% | Reduction in area under Blood glucose curve (%) ([2]; 1 μ moles/kg po): 46%

CNCCOc1ccc(C[C@H](C)NC[C@H](O)c2cccc(C(F)(F)F)c2)cc1 [Example 23, N-[2-(4-(2-Methylaminoethoxy)phenyl)-1-methylethyl]-2-hydroxy-2-(3-trifluoromethylphenyl)ethanamine dihydrochloride, (RS,SR) diastereoisomer]
response vs control in vivo at 6.5 mg/kg [1, 3]: 109% | response vs control in vivo at 6.5 mg/kg ([1]; read-out: Mean Food Intake (%)): 112% | Reduction in area under Blood glucose curve (%) ([2]; 2.5 μ moles/kg po): 20%

CC(Cc1ccc(OCCN2CCCC2)cc1)NCC(O)c1cccc(C(F)(F)F)c1 (stereo not shown) [Example 25, N-[2-(4-(2-11-Pyrrolidine)ethoxy)phenyl)-1-methylethyl]-2-hydroxy-2-(3-trifluoromethylphenyl)ethanamine dihydrochloride]
response vs control in vivo at 25.5 mg/kg [1, 3]: 117% | response vs control in vivo at 25.5 mg/kg ([1]; read-out: Mean Food Intake (%)): 87%

CC(Cc1ccc(OCCN2CCCCC2)cc1)NCC(O)c1cccc(C(F)(F)F)c1 (stereo not shown) [Example 26, N-[2-(4-(2-(1-Piperidine)ethoxy)phenyl)-1-methylethyl]-2-hydroxy-2-(3-trifluoromethylphenyl)ethanamine dihydrochloride monohydrate]
response vs control in vivo at 26.4 mg/kg [1, 3]: 125% | response vs control in vivo at 26.4 mg/kg ([1]; read-out: Mean Food Intake (%)): 63%

CCNCCOc1ccc(CC(C)NCC(O)c2cccc(C(F)(F)F)c2)cc1 (stereo not shown) [Example 27, N-[2-(4-(2-Ethylaminoethoxy)phenyll-1-methylethyl]-2-hydroxy-2-(3-trifluoromethylphenyl)ethanaminedihydrochloride]
response vs control in vivo at 24.2 mg/kg [1, 3]: 143% | response vs control in vivo at 24.2 mg/kg ([1]; read-out: Mean Food Intake (%)): 100%

CNCCOc1ccc(C[C@@H](C)NC[C@H](O)c2cccc(Cl)c2)cc1 [Example 28, N-[2-(4-(2-Methylaminoethoxy)phenyl)-1-methylethyl]-2-hydroxy-2-(3-chlorophenyl)ethanamine dihydrochloride - (RR,SS) diastereoisomer]
response vs control in vivo at 21.8 mg/kg [1, 3]: 135% | response vs control in vivo at 21.8 mg/kg ([1]; read-out: Mean Food Intake (%)): 108% | Reduction in area under Blood glucose curve (%) ([2]; 0.5 μ moles/kg po): 42%

CNCCOc1cccc(CC(C)NCC(O)c2cccc(Cl)c2)c1 (stereo not shown) [Example 29, N-[2-(3-(2-Methylaminoethoxy)phenyll-1-methylethyl]-2-hydroxy-2-(3-chlorophenyl)ethanaminedihydrochloride]
response vs control in vivo at 21.8 mg/kg [1, 3]: 123% | response vs control in vivo at 21.8 mg/kg ([1]; read-out: Mean Food Intake (%)): 107% | Reduction in area under Blood glucose curve (%) ([2]; 12.5 μ moles/kg po): 48%

CC(Cc1ccc(OCCN2CCOCC2)cc1)NCC(O)c1cccc(C(F)(F)F)c1 (stereo not shown) [Example 30, N-[2-(4-(2-(1-Morpholine)ethoxy)phenyl)-1-methylethyl]-2-hydroxy-2-(3-trifluoromethylphenyl)ethanamine]
response vs control in vivo at 22.6 mg/kg [1, 3]: 125% | response vs control in vivo at 22.6 mg/kg ([1]; read-out: Mean Food Intake (%)): 95%

CC(COc1ccc(CC(C)NCC(O)c2cccc(C(F)(F)F)c2)cc1)NCc1ccccc1 (stereo not shown) [Example 31, N-[2-(4-(2-Benzylaminopropoxy)phenyl)-1-methylethyl]-2-hydroxy-2-(3-trifluoromethylphenyl)ethanamine]
response vs control in vivo at 24.3 mg/kg [1, 3]: 100% | response vs control in vivo at 24.3 mg/kg ([1]; read-out: Mean Food Intake (%)): 59% | Reduction in area under Blood glucose curve (%) ([2]; 50 μ moles/kg po): 45%

CNCCCCCCOc1ccc(CC(C)NCC(O)c2cccc(C(F)(F)F)c2)cc1 (stereo not shown) [Example 33, N-[2-(4-(6-Methylaminohexyloxy)phenyl)-1-methylethyl]-2-hydroxy-2-(3-trifluoromethylphenyl)-ethanamine dihydrochloride]
response vs control in vivo at 26.3 mg/kg [1, 3]: 131% | response vs control in vivo at 26.3 mg/kg ([1]; read-out: Mean Food Intake (%)): 80%

NCCOc1ccc(CCNCC(O)c2cccc(C(F)(F)F)c2)cc1 (stereo not shown) [Example 34, N-[2-(4-(2-Aminoethoxy)phenyl)ethyl]-2-hydroxy-2-(3-trifluoromethylphenyl)ethanamine]
response vs control in vivo at 18.4 mg/kg [1, 3]: 117% | response vs control in vivo at 18.4 mg/kg ([1]; read-out: Mean Food Intake (%)): 103%

— patent publication EP0070133B1, “Secondary phenylethanol amines, processes for their preparation and their pharmaceutical application” (priority 1981, dated 1983)
